Results on 8 compounds are retold here after PubChem BioAssay (NCI).

Structures are written as SMILES.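 These data come from cells grown in 96-well plates and exposed to compound for 48 hours at five concentrations. At the GI50, growth is halved. TGI is the concentration that stops growth completely.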

Test systems include MDA-MB-231 breast; A549 NSCLC; OVCAR-5 ovarian; UACC-257 melanoma; SF-268 CNS; NCI-H226 lung; MCF7 breast; RPMI-8226 leukemia; NCI-H460 lung; HCC-2998 colon.
Common to all, as to experiment: NCI-60 cell line screen, 48 h

On to `C/C(=N/Nc1nc2ccccc2n1C)c1ccccn1`, for which the GI50 in the experiment with MDA-MB-231 breast was 0.0561 µM; with A549 NSCLC, 0.106 µM; in the experiment with OVCAR-5 ovarian, 0.243 µM; in the experiment with UACC-257 melanoma, 0.0377 µM; with SF-268 CNS it was 0.202 µM; with NCI-H226 lung it was 0.0584 µM. Moreover, the GI50 in the experiment on MCF7 breast is 0.0276 µM; in the experiment with RPMI-8226 leukemia, 0.0398 µM; in the experiment with NCI-H460 lung, 0.133 µM; with HCC-2998 colon, 0.493 µM. Also, the TGI is 15.3 µM in the experiment on MDA-MB-231 breast; 14.5 µM in the experiment on A549 NSCLC; 39.7 µM in the experiment on OVCAR-5 ovarian; 0.489 µM in the experiment with UACC-257 melanoma; over 35.6 µM with SF-268 CNS; 4.69 µM in the experiment with NCI-H226 lung. The TGI in the experiment with MCF7 breast was found to be 16.1 µM; in the experiment on RPMI-8226 leukemia it was 15.3 µM; in the experiment on NCI-H460 lung, 1.95 µM; in the experiment on HCC-2998 colon, 15.6 µM.

`C#CCC(Cc1cnc2nc(N)nc(N)c2n1)c1ccc(C(=O)N[C@@H](CCC(=O)O)C(=O)O)cc1` (some centres undefined): the GI50 was under 0.01 µM with A549 NSCLC; under 0.01 µM with OVCAR-5 ovarian; 0.0243 µM in the experiment on UACC-257 melanoma; under 0.01 µM with SF-268 CNS; under 0.01 µM in the experiment on NCI-H226 lung; under 0.01 µM with MCF7 breast. The GI50 with RPMI-8226 leukemia was under 0.01 µM; with NCI-H460 lung it was under 0.01 µM; in the experiment on HCC-2998 colon, 0.0103 µM. Besides, the TGI with A549 NSCLC, in the experiment on OVCAR-5 ovarian, in the experiment with UACC-257 melanoma, in the experiment with SF-268 CNS, with NCI-H226 lung and with MCF7 breast was over 100 µM in each case. The TGI with RPMI-8226 leukemia, with NCI-H460 lung and with HCC-2998 colon was over 100 µM each time.

On to `CCC(CO)Nc1nc(NCc2ccccc2O)c2ncn(C(C)C)c2n1` (centres undefined), for which the GI50 with MDA-MB-231 breast is 4.22 µM; with A549 NSCLC, 4.03 µM; with OVCAR-5 ovarian, 3.72 µM; with UACC-257 melanoma, 32.2 µM; in the experiment with SF-268 CNS, 2.55 µM; in the experiment with NCI-H226 lung, 8.95 µM. Further, the GI50 with MCF7 breast was 2.88 µM; in the experiment with RPMI-8226 leukemia, 4.41 µM; in the experiment with NCI-H460 lung it was 2.45 µM; in the experiment with HCC-2998 colon, 0.215 µM. Also, the TGI in the experiment on MDA-MB-231 breast was 38 µM; in the experiment on A549 NSCLC it was over 100 µM; in the experiment with OVCAR-5 ovarian it was over 100 µM; with UACC-257 melanoma, over 100 µM; in the experiment with SF-268 CNS, 13 µM; in the experiment on NCI-H226 lung it was 50.8 µM. The TGI with MCF7 breast came to 8.73 µM; in the experiment on RPMI-8226 leukemia, 20.7 µM; in the experiment with NCI-H460 lung, 11.8 µM; with HCC-2998 colon, 6.98 µM.

`CC(=O)[C@@]1(O)CC[C@H]2[C@@H]3C[C@H](C)C4=CC(=O)CC[C@]4(C)[C@H]3[C@@H](O)C[C@@]21C`: the TGI in the experiment with MDA-MB-231 breast, in the experiment on A549 NSCLC, in the experiment with OVCAR-5 ovarian, in the experiment with UACC-257 melanoma, with SF-268 CNS and in the experiment on NCI-H226 lung was over 100 µM in each case. Moreover, the TGI with MCF7 breast, in the experiment on RPMI-8226 leukemia, in the experiment on NCI-H460 lung and with HCC-2998 colon was over 100 µM throughout.

Take `O=c1nc2n(-c3ccc(Cl)cc3)c3ccc([N+](=O)[O-])cc3cc-2c(=O)[nH]1`: the GI50 in the experiment on MDA-MB-231 breast was 17.3 µM; with A549 NSCLC, 30.4 µM; in the experiment on OVCAR-5 ovarian, 28.8 µM; in the experiment on UACC-257 melanoma, 23.4 µM; with SF-268 CNS it was 16.5 µM; in the experiment on NCI-H226 lung it was 21.1 µM. Besides, the values for the GI50 in the experiment with RPMI-8226 leukemia, in the experiment with NCI-H460 lung and with HCC-2998 colon were 12.3 µM, 23.1 µM and 22.3 µM, respectively. For the same compound, the TGI in the experiment with MDA-MB-231 breast was 44.5 µM; in the experiment on A549 NSCLC, over 100 µM; in the experiment on OVCAR-5 ovarian, 73.8 µM; in the experiment with UACC-257 melanoma, 62.5 µM; with SF-268 CNS, 64.5 µM; with NCI-H226 lung, 60.5 µM. Further, the TGI with RPMI-8226 leukemia is 47.7 µM; in the experiment on NCI-H460 lung it was over 100 µM; in the experiment on HCC-2998 colon, 54.3 µM.

For `CCc1c(C#N)c(S[C@@H](C(N)=O)c2ccccc2)nc(N(C)C)c1C#N`, the GI50 was 10.8 µM in the experiment with MDA-MB-231 breast; over 100 µM with OVCAR-5 ovarian; 5.07 µM with SF-268 CNS; 4.76 µM in the experiment with NCI-H226 lung; over 100 µM with RPMI-8226 leukemia; over 100 µM in the experiment with NCI-H460 lung. The GI50 in the experiment on HCC-2998 colon was over 100 µM. In addition, the TGI with MDA-MB-231 breast, in the experiment with OVCAR-5 ovarian, in the experiment with SF-268 CNS, in the experiment with NCI-H226 lung, in the experiment on RPMI-8226 leukemia and in the experiment with NCI-H460 lung was over 100 µM each time. Further, the TGI in the experiment on HCC-2998 colon was over 100 µM.

`Cc1ccc(/C=C2/SC(Nc3nc(-c4csc(NC5=NC(=O)/C(=C\c6ccc(C)cc6)S5)n4)cs3)=NC2=O)cc1`: the GI50 is 9.76 µM with MDA-MB-231 breast; 7 µM with A549 NSCLC; 18.9 µM in the experiment on OVCAR-5 ovarian; 2.81 µM in the experiment with UACC-257 melanoma; 8.98 µM with SF-268 CNS; 1.58 µM with NCI-H226 lung. In addition, the values for the GI50 with MCF7 breast, with NCI-H460 lung and with HCC-2998 colon were 2.3 µM, 4.36 µM and 7.23 µM, respectively. Also, the TGI in the experiment with MDA-MB-231 breast was 40.6 µM; in the experiment with A549 NSCLC, 47.6 µM; with OVCAR-5 ovarian, over 50 µM; in the experiment with UACC-257 melanoma, 14.6 µM; in the experiment on SF-268 CNS it was over 50 µM; in the experiment on NCI-H226 lung, 28 µM. The TGI in the experiment with MCF7 breast is over 50 µM; in the experiment with NCI-H460 lung it was over 50 µM; in the experiment on HCC-2998 colon, 27.7 µM.

In the case of `O=C1C(Cl)=C(Nc2cccc(Cl)c2)C(=O)N1Cc1ccccc1Cl`, the GI50 in the experiment on MDA-MB-231 breast is 2.4 µM; in the experiment with A549 NSCLC it was 10.2 µM; in the experiment on UACC-257 melanoma, 12.8 µM; in the experiment with SF-268 CNS, 13.1 µM; with NCI-H226 lung, 0.296 µM; in the experiment on MCF7 breast it was 5.18 µM. The GI50 is 1.82 µM with RPMI-8226 leukemia and 11.8 µM in the experiment with NCI-H460 lung. The TGI in the experiment with MDA-MB-231 breast was 15.1 µM; in the experiment with A549 NSCLC, 26.5 µM; with UACC-257 melanoma, 30.9 µM; in the experiment with SF-268 CNS, 36 µM; with NCI-H226 lung, 2.9 µM; in the experiment with MCF7 breast it was 21.2 µM. In addition, the TGI is 26 µM with RPMI-8226 leukemia and 27 µM in the experiment on NCI-H460 lung.
